1 molecule from ChEMBL document CHEMBL2034913, “A variant peptide of buffalo colostrum β-lactoglobulin inhibits angiotensin I-converting enzyme activity” (Eur J Med Chem, 2012) can be followed below.

Peptide text beside a SMILES is read from it.

The target of assay [1] is T1, Angiotensin-converting enzyme (Rattus norvegicus) (UniProt P47820).
T1 sequence (whole entry): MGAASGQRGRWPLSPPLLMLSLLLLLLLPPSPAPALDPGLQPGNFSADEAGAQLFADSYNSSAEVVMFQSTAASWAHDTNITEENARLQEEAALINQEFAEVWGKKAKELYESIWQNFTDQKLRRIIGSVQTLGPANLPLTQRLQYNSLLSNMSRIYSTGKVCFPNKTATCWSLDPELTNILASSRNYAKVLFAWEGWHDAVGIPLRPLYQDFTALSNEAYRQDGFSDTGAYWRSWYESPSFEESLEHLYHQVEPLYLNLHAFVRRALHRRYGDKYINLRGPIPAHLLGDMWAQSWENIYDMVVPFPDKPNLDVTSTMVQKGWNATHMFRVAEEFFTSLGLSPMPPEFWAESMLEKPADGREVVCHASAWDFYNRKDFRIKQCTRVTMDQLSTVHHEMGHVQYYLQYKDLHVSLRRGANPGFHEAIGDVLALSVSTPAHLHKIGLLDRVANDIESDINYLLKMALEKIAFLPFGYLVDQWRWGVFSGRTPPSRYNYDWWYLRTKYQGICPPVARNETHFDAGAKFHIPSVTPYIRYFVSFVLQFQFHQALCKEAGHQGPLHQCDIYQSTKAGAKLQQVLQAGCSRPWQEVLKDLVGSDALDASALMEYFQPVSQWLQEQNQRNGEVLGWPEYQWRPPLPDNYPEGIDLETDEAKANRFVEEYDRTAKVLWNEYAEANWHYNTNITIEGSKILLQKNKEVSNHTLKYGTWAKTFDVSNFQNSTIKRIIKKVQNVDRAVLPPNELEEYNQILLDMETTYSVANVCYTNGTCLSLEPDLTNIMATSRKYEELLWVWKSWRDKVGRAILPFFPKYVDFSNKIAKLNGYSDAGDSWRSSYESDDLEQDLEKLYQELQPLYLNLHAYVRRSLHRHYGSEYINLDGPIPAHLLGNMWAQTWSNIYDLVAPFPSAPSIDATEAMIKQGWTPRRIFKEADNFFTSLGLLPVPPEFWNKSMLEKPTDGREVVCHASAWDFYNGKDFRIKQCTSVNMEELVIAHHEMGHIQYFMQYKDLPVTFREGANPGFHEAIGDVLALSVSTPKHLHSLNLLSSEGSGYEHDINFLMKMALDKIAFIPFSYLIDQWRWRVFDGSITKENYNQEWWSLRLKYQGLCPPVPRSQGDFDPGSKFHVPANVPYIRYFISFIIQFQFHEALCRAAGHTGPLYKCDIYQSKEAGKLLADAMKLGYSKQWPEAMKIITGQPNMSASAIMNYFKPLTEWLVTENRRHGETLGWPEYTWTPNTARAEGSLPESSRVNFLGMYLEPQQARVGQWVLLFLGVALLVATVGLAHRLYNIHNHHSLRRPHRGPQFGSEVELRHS
Nature of the assay: (§1) Inhibition of ACE from rat kidney using hippuryl-histidyl-leucine as substrate after 30 mins by UV/VIS spectrophotometry.

Assay [2] deals with T2, Angiotensin-converting enzyme (Rattus norvegicus, UniProt P47820).
T2 sequence (P47820 whole entry): T1 sequence (whole entry)
The description is as §1.

Take `CC[C@H](C)[C@H](N)C(=O)N[C@H](C(=O)N[C@@H](C)C(=O)N[C@@H](CCSC)C(=O)N[C@@H](CCCCN)C(=O)O)[C@@H](C)CC` (H-IIAMK-OH): the inhibition entry in assay [1] is “Dose-dependent effect”. Half-maximal inhibition in assay [2] (IC50) was put at 498 µM.
